# According to patent US10377783B2, “Methods and compounds for enhancing contrast in magnetic resonance imaging (MRI)” (priority 2015, dated 2019):
# Columns and labels:
# [1] = system: primary rat renal proximal tubule epithelial cells (RPTECs); test: In vitro toxicity, MTT assay; format: cell-based
# Method: Gadodiamide (Selleckchem, Lot #02) was used as the reference compound. It is one of the 8 Gd(III)-based MRI agents approved for use in Canada (trade name: Omniscan™).
# The test articles and reference compound were weighed and dissolved in the incubation medium to give the highest test concentration of 30 mM. The solution was filter sterilized and diluted to the remaining test concentrations of 10 mM, 3.3 mM, 1.1 mM, 0.36 mM, 0.12 mM and 0.04 mM.
# Cryopreserved primary rat renal proximal tubule epithelial cells (RPTECs) (ScienCell Research Laboratories, Carlsbad, Calif.) were used for the study. The rat RPTECs were thawed completely at 37° C., and transferred to epithelial cell medium (ScienCell Research Laboratories, Carlsbad, Calif.) followed by plating in poly-L-lysine coated 96-well plates. The RPTECs were allowed to recover and grow in a cell culture incubator (37° C., humidified atmosphere of 5% carbon dioxide and 95% air) for 3 additional days with a medium change every alternate day.
# Following 3 days of plating, the RPTECs were washed once with serum free epithelial cell medium (ScienCell Research Laboratories, Carlsbad, Calif.) followed by treatment with the test, reference or control articles for 2, 4, 10 or 24 h. All treatments were performed in triplicate.
# Cellular viability and metabolic activity were assessed by using the 3-(4,5-dimethylthiazol-2-yl)-2,5-diphenyl tetrazolium bromide (MTT) uptake assay. A 10× stock of the MTT dye was prepared in phosphate buffered saline (PBS). An aliquot of dye was added 2 hrs before the intended time point to achieve a final 1× concentration, after which incubation (37° C., humidified atmosphere of 5% carbon dioxide and 95% air) continued until the desired time point. For the 2 hr time point, the aliquot of dye was added immediately after the test articles. Following incubation, all media was aspirated from the wells and the plates were allowed to dry. The resulting formazan crystals were dissolved in DMSO using an orbital shaker, and the absorbance at 570 nm was measured using a Victor ^3V multilabel plate reader (reference wavelength=650 nm).
# The inhibitory concentration (IC50, the concentration resulting in 50% toxicity) was determined by plotting log concentration vs. relative viability, followed by non-linear regression of the curve using Graph Pad Prism 5.0.
# An in vitro toxicity study was performed in order to evaluate the cytotoxic potential of several of the agents in primary rat renal proximal tubule epithelial cells (RPTECs), prior to performing in vivo studies. The Mn^II and Gd^III complexes of L1, L2 and L6 (complexes 1, 2, 5, and 7-9) were evaluated at seven concentrations (30 mM, 10 mM, 3.3 mM, 1.1 mM, 0.36 mM, 0.12 mM and 0.04 mM) after 2, 4, 10 and 24 hours of treatment in rat RPTECs. The MTT assay was used as an indicator of viability. The nephrotoxic potential of the test articles was compared to the toxicity observed in the presence of the approved agent Gadodiamide. The results are summarized in Table 4, where the inhibitory concentration (IC50, the concentration resulting in 50% toxicity) was determined by plotting log concentration vs. relative viability.
# [2] = system: male rats (Sprague Dawley Crl:SD); test: In vivo MRI imaging of 1, predominantly T1-weighted RARE fast-spin-echo scans; set-up: species or system rat; conditions: 0.02 mmol/kg iv; for MRI signal intensity, bladder: baseline (−10 min) 414.3; for MRI signal intensity, skeletal muscle: baseline (−10 min) 432.1; for MRI signal intensity, renal pelvis: baseline (−10 min) 465.7; for MRI signal intensity, renal medulla: baseline (−10 min) 480.8; for MRI signal intensity, liver: baseline (−10 min) 498.6; for MRI signal intensity, renal cortex: baseline (−10 min) 579.1
# Method: Compound 1 (aq., 12.5 mM) was injected intravenously into 2 male rats (Sprague Dawley Crl:SD, 312-338 g) at a dosage of 0.02 mmol/kg following anaesthesia with 5% isoflurane. Compound 2 (aq., 6.25 mM) was injected intravenously into 1 male rat (Sprague Dawley Crl:SD, 349 g) at a dosage of 0.01 mmol/kg following anaesthesia with 5% isoflurane. Compound 6 (aq., 6.25 mM) was injected intravenously into 1 male rat (Sprague Dawley Crl:SD, 341 g) at a dosage of 0.01 mmol/kg following anaesthesia with 5% isoflurane. Anesthesia was maintained at 2-2.5% isoflurane through a nose cone for the duration of the scans. Fast-spin-echo images were collected for 45 mins. immediately post-injection. For compound 1, the DT1-weighted RARE (Rapid Acquisition Relaxation Enhancement) scans were acquired with an echo time of 10 ms, and a repetition time=respiratory cycle duration (˜1100 ms). Both T1- and T2-weighted scans were collected on compounds 2 and 6.
# The in vivo contrast potential of compounds 1, 2 and 6 were studied via the collection of fast-spin-echo images for 30-45 minutes immediately following injection of an aqueous solution of each complex. The dosage chosen for 1 was 0.02 mmol/kg (c=[…]) while the dosage chosen for 2 and 6 was 0.01 mmol/kg (c=6.25 mM). Predominantly T1-weighted scans with some T2-weighting were performed on two rats injected with 1.
# [3] = Relaxivity measurements (T1 and T2 relaxation times, Bruker minispec mq60/mq20); format: physicochemical; conditions: aqueous solution, 37° C.
# Method: T1 and T2 relaxation times were measured at the STTARR Innovation Centre in Toronto, Canada using a Bruker minispec mq60, and at the Bruker Showroom in Milton, Canada using a Bruker minispec mq20. Measurements were carried out on a series of 6 aqueous dilutions between 0-5 mM.
# The T1 and T2 relaxation times of the 8 soluble, pure complexes were measured in aqueous solution at 37° C., at both 20 and 60 MHz.
# [4] = percentage of the initial intensity, first 45 min
structure (smiles),measurement,setting,value
"CC1=NCCNCCNCCN=C(C)c2cccc1n2.O.O.[Cl-].[Cl-].[Mn+2] [Compound 1, [MnL1Cl2].2H2O]",nephrotoxicity,"[1]; 2 and 4 h of treatment, 0.04-30 mM",did not show significant nephrotoxicity
same,cytotoxicity,"[1]; 10 h time point, compared with 4 h",did not display significant cytotoxicity
same,nephrotoxic effects,[1]; 24 h of treatment,exhibiting the least nephrotoxic effects
same,IC50,"[1]; 24 hr treatment, rat RPTECs, MTT, read-out: Inhibitory concentration IC50",5.47 mM
same,excretion (summary),[2],rapid excretion
same,time to appearance in the bladder,[2],≤ 5 min
same,"MRI signal intensity, bladder",[2]; 2 min after injection,454.3 arbitrary units of voxel intensity
same,"MRI signal intensity, skeletal muscle",[2]; 2 min after injection,358.5 arbitrary units of voxel intensity
same,"MRI signal intensity, renal pelvis",[2]; 2 min after injection,881.1 arbitrary units of voxel intensity
same,"MRI signal intensity, renal medulla",[2]; 2 min after injection,608.9 arbitrary units of voxel intensity
same,"MRI signal intensity, liver",[2]; 2 min after injection,458.8 arbitrary units of voxel intensity
same,"MRI signal intensity, renal cortex",[2]; 2 min after injection,635.2 arbitrary units of voxel intensity
same,"MRI signal intensity, bladder",[2]; 10 min after injection,1093.1 arbitrary units of voxel intensity
same,"MRI signal intensity, skeletal muscle",[2]; 10 min after injection,354.3 arbitrary units of voxel intensity
same,"MRI signal intensity, renal pelvis",[2]; 10 min after injection,920.7 arbitrary units of voxel intensity
same,"MRI signal intensity, renal medulla",[2]; 10 min after injection,561.8 arbitrary units of voxel intensity
same,"MRI signal intensity, liver",[2]; 10 min after injection,436.2 arbitrary units of voxel intensity
same,"MRI signal intensity, renal cortex",[2]; 10 min after injection,683.4 arbitrary units of voxel intensity
same,"MRI signal intensity, bladder",[2]; 15 min after injection,1147.9 arbitrary units of voxel intensity
same,"MRI signal intensity, skeletal muscle",[2]; 15 min after injection,346.5 arbitrary units of voxel intensity
same,"MRI signal intensity, renal pelvis",[2]; 15 min after injection,806.3 arbitrary units of voxel intensity
same,"MRI signal intensity, renal medulla",[2]; 15 min after injection,524.4 arbitrary units of voxel intensity
same,"MRI signal intensity, liver",[2]; 15 min after injection,410.2 arbitrary units of voxel intensity
same,"MRI signal intensity, renal cortex",[2]; 15 min after injection,660.3 arbitrary units of voxel intensity
same,"MRI signal intensity, bladder",[2]; 20 min after injection,1046.4 arbitrary units of voxel intensity
same,"MRI signal intensity, skeletal muscle",[2]; 20 min after injection,337.5 arbitrary units of voxel intensity
same,"MRI signal intensity, renal pelvis",[2]; 20 min after injection,733.9 arbitrary units of voxel intensity
same,"MRI signal intensity, renal medulla",[2]; 20 min after injection,502.9 arbitrary units of voxel intensity
same,"MRI signal intensity, liver",[2]; 20 min after injection,424.5 arbitrary units of voxel intensity
same,"MRI signal intensity, renal cortex",[2]; 20 min after injection,717.0 arbitrary units of voxel intensity
same,"MRI signal intensity, bladder",[2]; 30 min after injection,970.1 arbitrary units of voxel intensity
same,"MRI signal intensity, skeletal muscle",[2]; 30 min after injection,330.6 arbitrary units of voxel intensity
same,"MRI signal intensity, renal pelvis",[2]; 30 min after injection,704.7 arbitrary units of voxel intensity
same,"MRI signal intensity, renal medulla",[2]; 30 min after injection,512.6 arbitrary units of voxel intensity
same,"MRI signal intensity, liver",[2]; 30 min after injection,398.0 arbitrary units of voxel intensity
same,"MRI signal intensity, renal cortex",[2]; 30 min after injection,775.4 arbitrary units of voxel intensity
same,"MRI signal intensity, bladder",[2]; 45 min after injection,1030.1 arbitrary units of voxel intensity
same,"MRI signal intensity, skeletal muscle",[2]; 45 min after injection,351.0 arbitrary units of voxel intensity
same,"MRI signal intensity, renal pelvis",[2]; 45 min after injection,666.1 arbitrary units of voxel intensity
same,"MRI signal intensity, renal medulla",[2]; 45 min after injection,520.6 arbitrary units of voxel intensity
same,"MRI signal intensity, liver",[2]; 45 min after injection,369.8 arbitrary units of voxel intensity
same,"MRI signal intensity, renal cortex",[2]; 45 min after injection,804.1 arbitrary units of voxel intensity
same,liver signal,[2]; first 45 minutes,gradual liver hypoenhancement
same,renal cortical signal,[2]; first 45 minutes,slow increase in the renal cortical signal
same,"Max. intensity change, bladder",[2]; [4],177%
same,"Max. intensity change, liver",[2]; [4],−26%
same,"Max. intensity change, renal cortex",[2]; [4],39%
same,"Max. intensity change, renal medulla",[2]; [4],27%
same,"Max. intensity change, renal pelvis",[2]; [4],98%
same,"Max. intensity change, skeletal muscle",[2]; [4],−23%
same,retention in tissues or organs,[2]; scans 3 hours post-injection,no evidence of compound 1 being retained by any tissue or organ
same,r1 relaxivity,[3]; 20 MHz,3.78 s⁻¹ mM⁻¹
same,r1 relaxivity,[3]; 60 MHz,2.76 s⁻¹ mM⁻¹
